Assay results: the supplement of paper PMC10307832

Experiments:
Experiment in all cases: relative viability (nuclei count vs DMSO), 5 days (fraction); higher = more cells survive
[1] = compound: COc1cc(Nc2ncc(F)c(Nc3ccc4c(n3)NC(=O)C(C)(C)O4)n2)cc(OC)c1OC [R406] + CS(=O)(=O)N1CCN(Cc2cc3nc(-c4cccc5[nH]ncc45)nc(N4CCOCC4)c3s2)CC1 [Pictilisib] (partner 1 µM)
In short: (§1)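 Lung cancer cell lines in 1536-well plates were dosed by pin tool the day after seeding, either with one drug alone or with a fixed anchor-drug dose plus five library-drug doses (not always all listed) in √10 steps. After 5 days, cells were fixed and their nuclei stained in one step (final 0.05% Triton X-100, 1% formaldehyde, 1 ug/ml Hoechst), then counted on 4× images. Relative viability is the nuclei count in treated wells divided by that in vehicle wells. Values are medians of duplicate plates.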

[2] = compound: COc1cc(Nc2ncc(F)c(Nc3ccc4c(n3)NC(=O)C(C)(C)O4)n2)cc(OC)c1OC [R406] + COc1cccc2cc(-c3nc([C@H]4CC[C@H](C(=O)O)CC4)n4ncnc(N)c34)[nH]c12 [OSI-027] (partner 0.5 µM)
In short: as §1

[3] = compound: COc1cc(Nc2ncc(F)c(Nc3ccc4c(n3)NC(=O)C(C)(C)O4)n2)cc(OC)c1OC [R406] + Cc1cc(Nc2cc(N3CCN(C)CC3)nc(Sc3ccc(NC(=O)C4CC4)cc3)n2)n[nH]1 [Tozasertib] (partner 0.1 µM)
In short: as §1

[4] = compound: COc1cc(Nc2ncc(F)c(Nc3ccc4c(n3)NC(=O)C(C)(C)O4)n2)cc(OC)c1OC [R406] + C[C@]1(O)C[C@@H](c2nc(-c3ccc4ccc(-c5ccccc5)nc4c3)c3c(N)nccn32)C1 [Linsitinib] (partner 1 µM)
In short: as §1

Cell Line | relative viability ([1]; first compound 0.08 µM) | relative viability ([1]; first compound 0.253 µM) | relative viability ([1]; first compound 0.8 µM) | relative viability ([1]; first compound 2.53 µM) | relative viability ([1]; first compound 8 µM) | relative viability ([2]; first compound 0.08 µM) | relative viability ([2]; first compound 0.253 µM) | relative viability ([2]; first compound 0.8 µM) | relative viability ([2]; first compound 2.53 µM) | relative viability ([2]; first compound 8 µM) | relative viability ([3]; first compound 0.08 µM) | relative viability ([3]; first compound 0.253 µM) | relative viability ([3]; first compound 0.8 µM) | relative viability ([3]; first compound 2.53 µM) | relative viability ([3]; first compound 8 µM) | relative viability ([4]; first compound 0.08 µM) | relative viability ([4]; first compound 0.253 µM) | relative viability ([4]; first compound 0.8 µM) | relative viability ([4]; first compound 2.53 µM) | relative viability ([4]; first compound 8 µM)
201T | 0.677 | 0.725 | 0.669 | 0.591 | 0.57 | 0.974 | 0.762 | 0.705 | 0.683 | 0.517 | 1.02 | 1 | 0.986 | 0.939 | 0.523 | 0.995 | 1.06 | 1.07 | 0.915 | 0.824
A549 | 0.519 | 0.694 | 0.6 | 0.265 | 0.0797 | – | – | – | – | – | – | – | – | – | – | 0.52 | 0.659 | 0.619 | 0.584 | 0.418
A-427 | 0.72 | 0.846 | 0.69 | 0.548 | 0.546 | 0.568 | 0.523 | 0.508 | 0.245 | 0.238 | 0.254 | 0.223 | 0.188 | 0.185 | 0.169 | 1.09 | 1.19 | 1.17 | 1.07 | 0.964
ABC-1 | 1 | 0.817 | 0.72 | 0.393 | 0.45 | 0.554 | 0.477 | 0.531 | 0.341 | 0.304 | 0.167 | 0.16 | 0.162 | 0.158 | 0.14 | 0.863 | 1.03 | 0.803 | 0.594 | 0.555
BEN | 0.581 | 0.642 | 0.57 | 0.623 | 0.447 | 0.291 | 0.299 | 0.286 | 0.298 | 0.281 | 0.522 | 0.478 | 0.499 | 0.569 | 0.543 | 0.946 | 1.22 | 0.981 | 0.877 | 0.708
CAL-12T | 0.296 | 0.575 | 0.457 | 0.193 | 0.185 | 0.654 | 0.702 | 0.895 | 0.133 | 0.209 | 0.312 | 0.366 | 0.324 | 0.255 | 0.194 | 0.806 | 0.909 | 0.943 | 0.495 | 0.675
COR-L23 | 0.755 | 0.926 | 1.14 | 0.681 | 0.233 | 0.704 | 0.794 | 0.995 | 0.527 | 0.397 | 0.173 | 0.218 | 0.164 | 0.15 | 0.113 | 0.886 | 1.04 | 1.04 | 0.731 | 0.405
COR-L 105 | 0.453 | 0.401 | 0.38 | 0.366 | 0.303 | 0.659 | 0.612 | 0.752 | 0.405 | 0.235 | 0.344 | 0.325 | 0.439 | 0.237 | 0.399 | 0.968 | 1.13 | 0.879 | 0.705 | 0.736
Calu-6 | 0.861 | 0.957 | 1.01 | 0.585 | 0.369 | – | – | – | – | – | – | – | – | – | – | 0.937 | 1.08 | 1.12 | – | 0.49
ChaGo-K-1 | 0.719 | 0.917 | 0.791 | 0.584 | 0.391 | 0.606 | 0.565 | 0.672 | 0.386 | 0.471 | 0.224 | 0.203 | 0.251 | 0.218 | 0.164 | – | – | – | – | –
EBC-1 | 0.462 | 0.371 | 0.528 | 0.26 | 0.162 | – | – | – | – | – | – | – | – | – | – | 1.01 | 1.07 | 1.13 | 0.732 | 0.423
EKVX | 0.436 | 0.41 | 0.422 | 0.357 | 0.347 | 0.721 | 0.739 | 0.778 | 0.601 | 0.552 | 0.369 | 0.45 | 0.499 | 0.317 | 0.273 | 1.05 | 1.32 | 1.19 | 0.9 | 0.688
EMC-BAC-2 | 0.566 | 0.58 | 0.585 | 0.502 | 0.323 | 0.373 | 0.416 | 0.407 | 0.232 | 0.203 | 0.311 | 0.286 | 0.305 | 0.279 | 0.246 | 0.817 | 0.87 | 0.822 | 0.707 | 0.53
EPLC-272H | 0.293 | 0.326 | 0.328 | 0.156 | 0.119 | 0.275 | 0.291 | 0.253 | 0.203 | 0.229 | 0.206 | 0.242 | 0.403 | 0.177 | 0.111 | 1.1 | 1.18 | 1.15 | 0.717 | 0.564
H3255 | 0.48 | 0.533 | 0.495 | 0.347 | 0.331 | 0.569 | – | 0.651 | 0.426 | 0.406 | 0.673 | – | 0.782 | 0.604 | 0.603 | 0.84 | 1.08 | 1.04 | 0.8 | 0.725
HARA | 0.416 | 0.349 | 0.405 | 0.248 | 0.187 | 0.621 | 0.668 | 0.591 | 0.22 | 0.198 | 0.115 | 0.127 | 0.13 | 0.155 | 0.123 | 0.772 | 0.991 | 1.04 | 0.819 | 0.288
HCC-15 | 0.702 | 0.896 | 0.827 | – | 0.693 | 0.701 | 0.928 | 0.832 | 0.505 | 0.439 | 0.437 | 0.484 | 0.458 | 0.483 | 0.208 | 0.856 | 0.914 | 1.01 | – | 0.776
HCC-44 | 0.569 | 0.647 | 0.611 | 0.526 | 0.335 | 0.435 | 0.662 | 0.599 | 0.293 | 0.363 | 0.909 | 0.532 | 0.963 | 0.979 | 0.393 | 0.62 | 0.729 | 0.758 | 0.688 | 0.305
